Target: S1P1 receptor (Homo sapiens (Human), UniProt P21453)
Experiment: FLIPR assay (Ca2+ response), S1P1 receptor
Assay type: cell-based
Details: receptor activity at highest dose tested (10 μM) relative to 5 nM sphingosine-1-phosphate

Sequence of S1P1 receptor (P21453 whole entry): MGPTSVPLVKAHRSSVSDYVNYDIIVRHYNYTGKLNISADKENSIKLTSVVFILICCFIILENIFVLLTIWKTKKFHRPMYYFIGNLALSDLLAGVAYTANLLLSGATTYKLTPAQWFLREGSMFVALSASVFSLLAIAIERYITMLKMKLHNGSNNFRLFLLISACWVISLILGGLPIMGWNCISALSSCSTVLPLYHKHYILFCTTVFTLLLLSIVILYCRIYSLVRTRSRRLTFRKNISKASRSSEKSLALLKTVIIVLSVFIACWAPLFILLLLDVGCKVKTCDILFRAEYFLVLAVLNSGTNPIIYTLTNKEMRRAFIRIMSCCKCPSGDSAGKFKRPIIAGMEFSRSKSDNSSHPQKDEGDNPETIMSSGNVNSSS

| S1P1 percent efficacy (in parenthesis) [%] | S1P1 percent efficacy (in parenthesis) (selective inhibitor table) [%] | SMILES |
| --- | --- | --- |
| 69 | – | CCCc1ccc(-c2ccc(CNCCCP(=O)(O)O)nc2-c2ccccc2)cc1 [Compound 154] |
| 36 | – | Cc1ccc(-c2ccc(CNCCCP(=O)(O)O)nc2-c2ccccc2)cc1 [Compound 147] |
| – | 57 | CCc1ccc(-c2ccc(CNCCCP(=O)(O)O)nc2-c2ccccc2)cc1 [drawing 165] |
| 57 | – | CCc1ccc(-c2ccc(CNCCCP(=O)(O)O)nc2-c2ccccc2)cc1 [Compound 148] |
